One may read the EC50 as the concentration at which the effect is half-maximal.

Sequence of FXR (Q96RI1 262-486): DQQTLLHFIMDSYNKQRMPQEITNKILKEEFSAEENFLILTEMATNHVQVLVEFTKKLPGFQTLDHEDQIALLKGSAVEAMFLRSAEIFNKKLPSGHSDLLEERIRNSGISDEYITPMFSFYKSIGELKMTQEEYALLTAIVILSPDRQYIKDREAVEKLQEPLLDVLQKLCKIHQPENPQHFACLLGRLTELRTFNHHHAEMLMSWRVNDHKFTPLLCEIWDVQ

This assay concerns the target FXR (Homo sapiens (Human), UniProt Q96RI1). Nature of the assay: transient human FXR/Gal4-luciferase reporter assay. It is filed as cell-based. To be noted: Gal4-hFXR fusion construct, HEK293 reporter cells; response relative to 8 μM GW-4064. The gist of the method:
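Compound exposure ran overnight at 37 °C and activity was measured as luminescence with Steady-Glo reagent. The cells were a HEK293 line stably expressing firefly luciferase under five Gal4 response elements. They were transiently transfected, one night beforehand, with a plasmid encoding Gal4 DNA-binding domain fused to the human FXR ligand-binding domain.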
(Reporter assays use an easily measured gene product as a stand-in for the process of interest.)
`CCOc1cnc(-c2cccc(N(CC34CCC(c5nc(C6CC6)no5)(CC3)CC4)C(=O)C34CC(F)(C3)C4)c2)nc1` [Example 333, N-((4-(3-cyclopropyl-1,2,4-oxadiazol-5-yl)bicyclo[2.2.2]octan-1-yl)methyl)-N-(3-(5-ethoxypyrimidin-2-yl)phenyl)-3-fluorobicyclo[1.1.1]pentane-1-carboxamide]: the half-maximal effective concentration (EC50) was 302 nM. As to `COc1cnc(-c2cccc(N(CC34CCC(c5nc(C6CC6)no5)(CC3)CC4)C(=O)C34CC(F)(C3)C4)c2)nc1` [Example 334, N-((4-(3-cyclopropyl-1,2,4-oxadiazol-5-yl)bicyclo[2.2.2]octan-1-yl)methyl)-3-fluoro-N-(3-(5-methoxypyrimidin-2-yl)phenyl)bicyclo[1.1.1]pentane-1-carboxamide], the half-maximal effective concentration (EC50) was found to be 77 nM. Then `O=C(N(CC12CCC(c3nc(C4CC4)no3)(CC1)CC2)c1cccc(-c2ncc(OC(F)F)cn2)c1)C12CC(F)(C1)C2` [Example 335, N-((4-(3-cyclopropyl-1,2,4-oxadiazol-5-yl)bicyclo[2.2.2]octan-1-yl)methyl)-N-(3-(5-(difluoromethoxy)pyrimidin-2-yl)phenyl)-3-fluorobicyclo[1.1.1]pentane-1-carboxamide], with 26 nM. In the case of `CC(=O)Nc1cn2nc(-c3cccc(N(CC45CCC(c6nc(C7CC7)no6)(CC4)CC5)C(=O)C45CC(F)(C4)C5)c3)ccc2n1` [Example 336, N-(3-(2-acetamidoimidazo[1,2-b]pyridazin-6-yl)phenyl)-N-((4-(3-cyclopropyl-1,2,4-oxadiazol-5-yl)bicyclo[2.2.2]octan-1-yl)methyl)-3-fluorobicyclo[1.1.1]pentane-1-carboxamide] it was 1230 nM; in that of `O=C(N(CC12CCC(c3nc(C4CC4)no3)(CC1)CC2)c1cccc(-c2ccnc(OC3CC3)n2)c1)C12CC(F)(C1)C2` [Example 337, N-(3-(2-cyclopropoxypyrimidin-4-yl)phenyl)-N-((4-(3-cyclopropyl-1,2,4-oxadiazol-5-yl)bicyclo[2.2.2]octan-1-yl)methyl)-3-fluorobicyclo[1.1.1]pentane-1-carboxamide], 380 nM. The compound `O=C(C1CC(F)(F)C1)N(CC12CCC(c3nc(C4CC4)no3)(CC1)CC2)c1cccc(-c2ccnc(OC3CC3)n2)c1` [Example 338, N-(3-(2-cyclopropoxypyrimidin-4-yl)phenyl)-N-((4-(3-cyclopropyl-1,2,4-oxadiazol-5-yl)bicyclo[2.2.2]octan-1-yl)methyl)-3,3-difluorocyclobutane-1-carboxamide] yielded an EC50 of 1360 nM. In turn, `COc1cc(-c2cccc(N(CC34CCC(c5nc(C6CC6)no5)(CC3)OC4)C(=O)C34CC(F)(C3)C4)c2)ccn1` [Example 339, N-((1-(3-cyclopropyl-1,2,4-oxadiazol-5-yl)-2-oxabicyclo[2.2.2]octan-4-yl)methyl)-3-fluoro-N-(3-(2-methoxypyridin-4-yl)phenyl)bicyclo[1.1.1]pentane-1-carboxamide] had an EC50 of 378 nM. In the case of `COc1cc(-c2ccnc(N(CC34CCC(c5nc(C6CC6)no5)(CC3)CC4)C(=O)C34CC(F)(C3)C4)c2)ccn1` [Example 340, N-((4-(3-cyclopropyl-1,2,4-oxadiazol-5-yl)bicyclo[2.2.2]octan-1-yl)methyl)-3-fluoro-N-(2′-methoxy-[4,4′-bipyridin]-2-yl)bicyclo[1.1.1]pentane-1-carboxamide] it was 398 nM; in that of `COc1ncc(-c2cccc(N(CC34CCC(c5nnc(C6CC6)o5)(CC3)CC4)C(=O)C34CC(F)(C3)C4)c2)cn1` [Example 341, N-((4-(5-cyclopropyl-1,3,4-oxadiazol-2-yl)bicyclo[2.2.2]octan-1-yl)methyl)-3-fluoro-N-(3-(2-methoxypyrimidin-5-yl)phenyl)bicyclo[1.1.1]pentane-1-carboxamide], 287 nM; in that of `COc1cc(-c2cccc(N(CC34CCC(c5nnc(C6CC6)o5)(CC3)CC4)C(=O)C34CC(F)(C3)C4)c2)ccn1` [Example 342, N-((4-(5-cyclopropyl-1,3,4-oxadiazol-2-yl)bicyclo[2.2.2]octan-1-yl)methyl)-3-fluoro-N-(3-(2-methoxypyridin-4-yl)phenyl)bicyclo[1.1.1]pentane-1-carboxamide], 120 nM. Then `COc1ccc(-c2cccc(N(CC34CCC(c5nnc(C6CC6)o5)(CC3)CC4)C(=O)C34CC(F)(C3)C4)c2)cn1` [Example 343, N-((4-(5-cyclopropyl-1,3,4-oxadiazol-2-yl)bicyclo[2.2.2]octan-1-yl)methyl)-3-fluoro-N-(3-(6-methoxypyridin-3-yl)phenyl)bicyclo[1.1.1]pentane-1-carboxamide], with 154 nM; and `CS(=O)(=O)Nc1ccc(-c2cccc(N(CC34CCC(c5nnc(C6CC6)o5)(CC3)CC4)C(=O)C34CC(F)(C3)C4)c2)cc1` [Example 344, N-((4-(5-cyclopropyl-1,3,4-oxadiazol-2-yl)bicyclo[2.2.2]octan-1-yl)methyl)-3-fluoro-N-(4′-(methylsulfonamido)-[1,1′-biphenyl]-3-yl)bicyclo[1.1.1]pentane-1-carboxamide], with 293 nM. Then `CS(=O)(=O)Nc1ccc(-c2cccc(N(CC34CCC(c5ccc(C6(C#N)CC6)cc5)(CC3)OC4)C(=O)C34CC(F)(C3)C4)c2)cc1` [Example 345, N-((1-(4-(1-Cyanocyclopropyl)phenyl)-2-oxabicyclo[2.2.2]octan-4-yl)methyl)-3-fluoro-N-(4′-(methylsulfonamido)-[1,1′-biphenyl]-3-yl)bicyclo[1.1.1]pentane-1-carboxamide], with 264 nM.

As for `Cc1nc2ccc(-c3cccc(N(CC45CCC(c6ccc(C7(C#N)CC7)cc6)(CC4)OC5)C(=O)C45CC(F)(C4)C5)c3)cc2s1` [Example 346, N-((1-(4-(1-cyanocyclopropyl)phenyl)-2-oxabicyclo[2.2.2]octan-4-yl)methyl)-3-fluoro-N-(3-(2-methylbenzo[d]thiazol-6-yl)phenyl)bicyclo[1.1.1]pentane-1-carboxamide], the concentration for a half-maximal effect (EC50) was determined as 181 nM. Then `Cc1nc2ccc(-c3cccc(N(CC45CCC(c6ccc(C7(C#N)CC7)cc6)(CC4)OC5)C(=O)C45CC(F)(C4)C5)c3)cc2o1` [Example 347, N-((1-(4-(1-cyanocyclopropyl)phenyl)-2-oxabicyclo[2.2.2]octan-4-yl)methyl)-3-fluoro-N-(3-(2-methylbenzo[d]oxazol-6-yl)phenyl)bicyclo[1.1.1]pentane-1-carboxamide], with 123 nM.

As for `COc1ccc(-c2cccc(N(CC34CCC(c5ccc(C6(C#N)CC6)cc5)(CC3)OC4)C(=O)C34CC(F)(C3)C4)c2)cc1` [Example 349, N-((1-(4-(1-cyanocyclopropyl)phenyl)-2-oxabicyclo[2.2.2]octan-4-yl)methyl)-3-fluoro-N-(4′-methoxy-[1,1′-biphenyl]-3-yl)bicyclo[1.1.1]pentane-1-carboxamide], the concentration for a half-maximal effect (EC50) was determined as 130 nM. As to `COc1ccc(-c2cccc(N(CC34CCC(c5ccc(C6(C#N)CC6)cc5)(CC3)OC4)C(=O)C34CC(F)(C3)C4)c2)cn1` [Example 350, N-((1-(4-(1-cyanocyclopropyl)phenyl)-2-oxabicyclo[2.2.2]octan-4-yl)methyl)-3-fluoro-N-(3-(6-methoxypyridin-3-yl)phenyl)bicyclo[1.1.1]pentane-1-carboxamide], a half-maximal response (EC50) required 296 nM.

The values above are taken from US11254663B2 (BRISTOL-MYERS SQUIBB COMPANY, priority 2019, dated 2022).
